According to patent US20150105252A1, “SUBSTITUTED PYRAZOLES AS HERBICIDES” (E I DU PONT DE NEMOURS AND COMPANY, priority 2013, published 2015):

Columns and labels:
barnyardgrass [1] = experiment: Test A preemergence; type: in vivo, Echinochloa crus-galli; settings: 0 to 100 scale
Method in brief: (§1)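 Seeds were sown in a loam soil–sand blend and given a directed soil spray preemergence; postemergence plants at 2–10 cm, one- to two-leaf stage, were sprayed with compound in non-phytotoxic solvent with surfactant. After about 10 days in a greenhouse, injury was visually rated against untreated controls (0 = no effect, 100 = complete control).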

crabgrass, large [2] = experiment: Test A preemergence; type: in vivo, Digitaria sanguinalis; settings: 0 to 100 scale
Method in brief: as §1

foxtail, giant [3] = experiment: Test A preemergence; type: in vivo, Setaria faberii; settings: 0 to 100 scale
Method in brief: as §1

morningglory [4] = experiment: Test A preemergence; type: in vivo, Ipomoea spp.; settings: 0 to 100 scale
Method in brief: as §1

pigweed [5] = experiment: Test A preemergence; type: in vivo, Amaranthus retroflexus; settings: 0 to 100 scale
Method in brief: as §1

velvetleaf [6] = experiment: Test A preemergence; type: in vivo, Abutilon theophrasti; settings: 0 to 100 scale
Method in brief: as §1

wheat [7] = experiment: Test A preemergence; type: in vivo, Triticum aestivum; settings: preemergence
Method in brief: as §1

corn [8] = experiment: Test A preemergence; type: in vivo, Zea mays; settings: 0 to 100 scale
Method in brief: as §1

barnyardgrass [9] = experiment: Test A postemergence; type: in vivo, Echinochloa crus-galli; settings: Postemergence
Method in brief: as §1

crabgrass, large [10] = experiment: Test A postemergence; type: in vivo, Digitaria sanguinalis
Method in brief: as §1

foxtail, giant [11] = experiment: Test A postemergence; type: in vivo, Setaria faberii
Method in brief: as §1

morningglory [12] = experiment: Test A postemergence; type: in vivo, Ipomoea spp.
Method in brief: as §1

pigweed [13] = experiment: Test A postemergence; type: in vivo, Amaranthus retroflexus
Method in brief: as §1

velvetleaf [14] = experiment: Test A postemergence; type: in vivo, Abutilon theophrasti
Method in brief: as §1

wheat [15] = experiment: Test A postemergence; type: in vivo, Triticum aestivum
Method in brief: as §1

corn [16] = experiment: Test A postemergence; type: in vivo, Zea mays
Method in brief: as §1

rice = experiment: Test B flood; type: in vivo, Oryza sativa; settings: 250 g ai/ha, visual rating on 0 to 100 scale (0 no effect, 100 complete control), 13 to 15 days
Protocol: (§2) Seeds selected from rice (Oryza sativa), sedge, umbrella (small-flower umbrella sedge Cyperus difformis), ducksalad (Heteranthera limosa), and barnyardgrass (Echinochloa crus-galli) were grown to the 2-leaf stage for testing. At time of treatment, test pots were flooded to 3 cm above the soil surface, treated by application of test compounds directly to the paddy water, and then maintained at that water depth for the duration of the test.
(§3) Treated plants and controls were maintained in a greenhouse for 13 to 15 days, after which time all species were compared to controls and visually evaluated. Plant response ratings, summarized in Table B, are based on a scale of 0 to 100 where 0 is no effect and 100 is complete control. A dash (-) response means no test result.

sedge, umbrella = experiment: Test B flood; type: in vivo, Cyperus difformis; settings: 250 g ai/ha, visual rating on 0 to 100 scale (0 no effect, 100 complete control), 13 to 15 days
Protocol: as §2, §3

ducksalad = experiment: Test B flood; type: in vivo, Heteranthera limosa; settings: 250 g ai/ha, visual rating on 0 to 100 scale (0 no effect, 100 complete control), 13 to 15 days
Protocol: as §2, §3

barnyardgrass [17] = experiment: Test B flood; type: in vivo, Echinochloa crus-galli; settings: 250 g ai/ha, visual rating on 0 to 100 scale (0 no effect, 100 complete control), 13 to 15 days
Protocol: as §2, §3

[18] = Preemergence, 500 g ai/ha, 0 no effect, 100 complete control
[19] = preemergence, 125 g ai/ha, visual injury, approx. 10 days
[20] = 125 g ai/ha, visual injury, 0 to 100 scale, approx. 10 days
[21] = 500 g ai/ha, visual injury after approx. 10 days, 0 to 100 scale (0 no effect, 100 complete control)
[22] = 125 g ai/ha, 0 to 100 scale, 0 no effect, 100 complete control
[23] = 500 g ai/ha, visual rating after approx. 10 days, 0 to 100 scale (0 no effect, 100 complete control)
[24] = Postemergence, 500 g ai/ha, visual rating after approx. 10 days, 0 to 100 scale (0 no effect, 100 complete control)
[25] = postemergence, 125 g ai/ha, about 10 days, visual rating on 0 to 100 scale (0 no effect, 100 complete control)

Compound | Barnyardgrass plant response rating (barnyardgrass [1]; [18]) | Barnyardgrass plant response rating (barnyardgrass [1]; [19]) | Crabgrass, Large plant response rating (crabgrass, large [2]; [18]) | Crabgrass, Large plant response rating (crabgrass, large [2]; [19]) | Foxtail, Giant plant response rating (foxtail, giant [3]; [18]) | Foxtail, Giant plant response rating (foxtail, giant [3]; [19]) | Morningglory plant response rating (morningglory [4]; [18]) | Morningglory plant response rating (morningglory [4]; [19]) | Pigweed plant response rating (pigweed [5]; [18]) | Pigweed plant response rating (pigweed [5]; [19]) | Velvetleaf plant response rating (velvetleaf [6]; [18]) | Velvetleaf plant response rating (velvetleaf [6]; [19]) | Wheat plant response rating (wheat [7]; [20]) | Wheat plant response rating (wheat [7]; [21]) | Corn plant response rating (corn [8]; [18]) | Corn plant response rating (corn [8]; [19]) | Barnyardgrass plant response rating (barnyardgrass [9]; [22]) | Barnyardgrass plant response rating (barnyardgrass [9]; [23]) | Crabgrass, Large plant response rating (crabgrass, large [10]; [24]) | Crabgrass, Large plant response rating (crabgrass, large [10]; [25]) | further results
CCCNC(=O)c1cc(C)n(Oc2ccnc(C(F)(F)F)c2)n1 [Compound 80] | 80 | 10 | 100 | 50 | 90 | 40 | 60 | 20 | 100 | 60 | 50 | 0 | 0 | 10 | 0 | 0 | 10 | 40 | 70 | 10 | Foxtail, Giant plant response rating (foxtail, giant [11]; [24]): 30; Foxtail, Giant plant response rating (foxtail, giant [11]; [25]): 10; Morningglory plant response rating (morningglory [12]; [24]): 70; Morningglory plant response rating (morningglory [12]; [25]): 30; Pigweed plant response rating (pigweed [13]; [24]): 60; Pigweed plant response rating (pigweed [13]; [25]): 40; Velvetleaf plant response rating (velvetleaf [14]; [24]): 50; Velvetleaf plant response rating (velvetleaf [14]; [25]): 10; Wheat plant response rating (wheat [15]; [24]): 10; Wheat plant response rating (wheat [15]; [25]): 0; Corn plant response rating (corn [16]; [24]): 30; Corn plant response rating (corn [16]; [25]): 10; Plant response rating, Rice (rice): 0; Plant response rating, Sedge, Umbrella (sedge, umbrella): 0; Plant response rating, Ducksalad (ducksalad): 0; Plant response rating, Barnyardgrass (barnyardgrass [17]): 0
CCc1cc(C(=O)NC2CC2)nn1Oc1ccnc(C(F)(F)F)c1 [Compound 83, N-cyclopropyl-5-ethyl-1-[[(2-trifluoromethyl)-4-pyridinyl]oxy]-1H-pyrazole-3-carboxamide] | 90 | 10 | 100 | 100 | 100 | 70 | 50 | 10 | 100 | 90 | 10 | 0 | 0 | 60 | 60 | 10 | 10 | 40 | 60 | 30 | Foxtail, Giant plant response rating (foxtail, giant [11]; [24]): 60; Foxtail, Giant plant response rating (foxtail, giant [11]; [25]): 20; Morningglory plant response rating (morningglory [12]; [24]): 70; Morningglory plant response rating (morningglory [12]; [25]): 20; Pigweed plant response rating (pigweed [13]; [24]): 20; Pigweed plant response rating (pigweed [13]; [25]): 10; Velvetleaf plant response rating (velvetleaf [14]; [24]): 30; Velvetleaf plant response rating (velvetleaf [14]; [25]): 30; Wheat plant response rating (wheat [15]; [24]): 40; Wheat plant response rating (wheat [15]; [25]): 0; Corn plant response rating (corn [16]; [24]): 70; Corn plant response rating (corn [16]; [25]): 10; Plant response rating, Rice (rice): 10; Plant response rating, Sedge, Umbrella (sedge, umbrella): 70; Plant response rating, Ducksalad (ducksalad): 60; Plant response rating, Barnyardgrass (barnyardgrass [17]): 0
